Patent US20220202770A1, “COMPOSITION FOR TREATING HEPATITIS B, AND METHOD FOR EVALUATING REPLICATION ACTIVITY OF HEPATITIS B VIRUS” (priority 2016, published 2022)

Tests used:
[1] = tested on: HBV DNA replication (reverse transcription of reporter pgRNA by wild type HBV-Pol); test: Evaluation method for HBV replication activity: reporter-minus strand DNA quantified by real time PCR in transfected HeLa cells; type: cell-based, hepatitis B virus (genotype C); HeLa cells; settings: 24 hours; for suppression of reverse transcription by wild-type HBV-Pol: Example 9, FIG. 12B (a, b), 0.020-5.000 μM
Method: To HeLa cells, the evaluation vector for HBV replication activity, HBV-P expression vector, HBc expression vector and HBx expression vector were introduced in various combinations (Introduction step). Combination patterns are as described in FIG. 4A. Transfection of the HeLa cells was carried out by electroporation. DNA (10 μg) was introduced into about 1×10^6 HeLa cells in the conditions of 125 V/2.5 ms plus length by an electroporator, Nepa 21 (Nepa Gene Co., Ltd.). The ratio of HBc expression vector:HBV-P expression vector:HBx expression vector was set to be 9:3:1. If there was an expression vector not to be introduced depending on the combination, the same ratio of an empty vector (pCI) as that of the expression vector not to be introduced was introduced. The ratio of the evaluation vector for HBV replication activity and the total of other expression vectors was set to be 1: 1 (5 μg: 5 μg). If there was an expression vector not to be introduced, pCI was introduced at the ratio corresponding to that of the expression vector.
After transfection, the HeLa cells were cultured in DMEM supplemented with 2 mL of 10% FBS in the presence of 5% CO2 at 37° C. for 48 hours (Culturing step).
After culture, DNA was extracted from the HeLa cells by means of DNeasy Mini (Qiagen). As the primer, a primer pair of a forward primer consisting of the nucleotide sequence represented by SEQ ID NO: 38 and a reverse primer consisting of the nucleotide sequence represented by SEQ ID NO: 39, was used. The forward primer has the two nucleotides at the 3′ terminal, which match the two nucleotides at the 5′ terminal of the exon present on the downstream side; however, fail to match two nucleotides at the 5′ terminal of the intron. Accordingly, the forward primer functions as a primer only in the case where reporter-minus strand DNA having a reporter sequence from which the intron was removed is present, and amplification can be made by using the reporter-minus strand DNA as a template to provide a DNA fragment of 131 nucleotides.
In accordance with the evaluation method for HBV replication activity described in Example 1, an evaluation vector for HBV replication activity, HBV-P expression vector, HBc expression vector and HBx expression vector were introduced in HeLa cells. […]
To HeLa cells, an evaluation vector for HBV replication activity, and expression vectors of HBV-P, HVc and HBx were introduced in the ratio described in the evaluation method for HBV replication activity described in Example 2. […] The absorbance of the culture solution was measured at 450 nm/650 nm to evaluate the survival rates of the cells. […]

[2] = tested on: Lamivudine-resistance mutant HBV-Pol (HBV-Pol-LAMr, M204I); test: Evaluation method for HBV replication activity with Lamivudine-resistance mutant HBV-Pol; type: cell-based, hepatitis B virus; HeLa cells; settings: Example 9, FIG. 12B (c, d); HeLa cells, 0.020-5.000 μM, 24 hours
Text: (§1) As described in the section of “background art”, long-term administration of conventional anti-HBV drugs made of a nucleotide/nucleoside analog such as Entecavir and Lamivudine causes the emergence of drug-resistant HBV. As a cause of the emergence of such a drug-resistant HBV, a mutation within the region of reverse transcription enzyme (RT) of HBV-Pol has been reported.
(§2) Then, mutant HBV-Pol expression vectors having M204I mutation, and L180M/T184G/S202I/M204I mutations respectively introduced therein were prepared in accordance with a conventional method and designated as HBV-P-LAMr, and HBV-P-ETVr, respectively. As the MAPKK inhibitor, Hypothemycin was used. As a negative control against a drug-resistant HBV, an existing anti-HBV drug, Entecavir, was used.
(§3) HBV replication evaluation was carried out in the same manner as in the evaluation method for HBV replication activity described in Example 1. The evaluation vector for HBV replication activity, and expression vectors of a wild type HBV-P or mutant HBV-P (HBV-P-LAMr or HBV-P-ETVr), HBc and HBx were introduced in the same ratio as in Example 2; at the same time, Hypothemycin or Entecavir was introduced in amounts of 0.000 μM, 0.020 μM, 0.039 μM, 0.078 μM, 0.156 μM, 0.313 μM, 0.625 μM, 1.250 μM, 2.500 μM or 5.000 μM. Culture was carried out under a 5% CO2 atmosphere at 37° C. […]

[3] = tested on: Entecavir-resistance mutant HBV-Pol (HBV-Pol-ETVr, L180M/T184G/S202I/M204I); test: Evaluation method for HBV replication activity with Entecavir-resistance mutant HBV-Pol; type: cell-based, hepatitis B virus; HeLa cells; settings: Example 9, FIG. 12B (e, f); HeLa cells, 0.020-5.000 μM, 24 hours
Text: as §1, §2, §3

[4] = tested on: genomic DNA (G3PDH exon 8) of HeLa cells; test: Amount of genomic DNA (G3PDH exon 8) in HeLa cells by real time PCR; type: cell-based, human (HeLa cells); settings: Example 3, FIG. 6B, serially diluted
Method: (§4) To HeLa cells, an evaluation vector for HBV replication activity, and expression vectors of HBV-P, HVc and HBx were introduced in the ratio described in the evaluation method for HBV replication activity described in Example 2. Thereafter, the HeLa cells were cultured in a 96-well plate containing a culture solution supplemented with a 0.25% n-butanol extract of a filamentous fungus culture, under 5% CO2 atmosphere at 37° C. Twenty-four hours later, WST-8 (Nacalai) was added to the culture solution, which was further subjected to culture for 2 hours. The absorbance of the culture solution was measured at 450 nm/650 nm to evaluate the survival rates of the cells.
(§5) After the culture solution was removed, DNA in the cell cytoplasm was recovered by a treatment with 50 μl of Buffer A (10 mM HEPES, 1.5 mM MgCl2, 10 mM KCl, 0.5 mM DTT, 0.05% NP40, pH7.9) and subjected to real time PCR performed in accordance with the method of Example 1. As the result of primary screening of 800 extracts (200 strains, 4 culture solutions), 162 extracts inhibiting 25% or more of HBV DNA replication (reverse transcription) and having a cytotoxic activity of 80% or less were selected as a primary hit.
(§6) Subsequently, 162 extracts primarily hit were serially diluted and added to an evaluation system. […]

[5] = tested on: mitochondrial DNA (ND5) of HeLa cells; test: Amount of mitochondrial DNA (ND5) in HeLa cells by real time PCR; type: cell-based, human (HeLa cells); settings: Example 3, FIG. 6C, serially diluted
Method: as §4, §5, §6

[6] = biological target: HBV/C-Pol (hepatitis B virus polymerase, Genotype C), wild type (hepatitis B virus, Genotype C) (UniProt Q9YZR5); test: cell-based or functional assay

| Molecule | amount of the reporter-minus strand DNA (replication of HBV DNA) ([1]; Example 2, FIG. 5, 0.04-5.00 μM/well) | suppression of reverse transcription by wild-type HBV-Pol [1] | suppression of reverse transcription activity of Lamivudine-resistance mutant HBV-Pol [2] | suppression of reverse transcription activity of Entecavir-resistance mutant HBV-Pol [3] | replication of HBV DNA ([1]; Example 3, FIG. 6A, serially diluted) | amount of genomic DNA (G3PDH exon 8) [4] | amount of mitochondrial DNA (ND5) [5] | HBV replication (reporter-minus strand DNA by real time PCR) in HeLa cells under forced expression of MEK1 [6] [fold] |
| --- | --- | --- | --- | --- | --- | --- | --- | --- |
| C=C1[C@H](CO)[C@@H](O)C[C@@H]1n1cnc2c(=O)[nH]c(N)nc21 [Entecavir] | decreased in an Entecavir-concentration depending manner | suppressed reverse transcription by a wild-type HBV-Pol in a concentration-dependent manner | weak | not substantially suppressed | – | – | – | – |
| Hypothemycin | – | all in a concentration-dependent manner | all in a concentration-dependent manner | all in a concentration-dependent manner | inhibited replication of HBV DNA in a concentration-dependent manner | not affected | not affected | – |
| constitutively active human MEK1 (S218E/S222E) (from UniProt Q02750 1-393) (enzyme) | – | – | – | – | – | – | – | 10 |
